Test results reported in patent US8637537B2, “Serine/threonine kinase inhibitors” (Genentech, Inc., priority 2011, dated 2014).
Structures can show the parent of a compound that is named as a salt. Where two headings read alike, the source gives them in different places.

Target: T1, human recombinant GST-PAK1-KD protein (Homo sapiens, UniProt Q13153)
T1 construct: residues #249-545 of human PAK1, UniProtKP/Swiss Q13153; His6 (N); made in house; host or cells: Sf9 insect cells, pAcGP67 baculovirus expression vector
T1 sequence (Q13153 249-545): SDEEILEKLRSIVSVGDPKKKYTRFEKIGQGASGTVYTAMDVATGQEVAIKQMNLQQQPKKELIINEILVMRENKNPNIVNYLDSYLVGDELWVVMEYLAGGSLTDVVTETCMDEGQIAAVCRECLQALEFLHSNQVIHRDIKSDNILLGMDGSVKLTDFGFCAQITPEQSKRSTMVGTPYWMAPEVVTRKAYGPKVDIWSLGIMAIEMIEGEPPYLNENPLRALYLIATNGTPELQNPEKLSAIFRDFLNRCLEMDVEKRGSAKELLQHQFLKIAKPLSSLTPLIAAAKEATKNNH
Test: GST-PAK1-KD (kinase domain) biochemical assay, microfluidic mobility shift
Method: Activity of human recombinant GST-PAK1-KD protein was assessed in vitro assay by observing the phosphorylation of a fluorogenic peptide substrate.
The peptide substrate is a consensus sequence based on various PAK1 substrates reported in the scientific literature. […] Incubations were carried out at 22° C. in MatriCal MP101 384-well Metriplates™. […] Following the 30-minute incubation, the assay mixtures were quenched by the addition of 3 μL of 250 mM EDTA, and the substrate and phosphorylated product were separated by capillary electrophoresis and detected using LabChip® Caliper 3000 (Caliper Life Sciences).

[1] = Table I, PAK1 Ki class, read-out: Ki

Ki [1] [nM]	Ki [nM]	Structure (SMILES)
< 50		F[C@H]1C[C@H]1c1cc(Nc2ccnc(NCc3ccc4[nH]cnc4c3Cl)n2)n[nH]1 [I-76, N^2-((4-chloro-1H-benzo[d]imidazol-5-yl)methyl)-N^4-(5-((1S,2S)-2-fluorocyclopropyl)-1H-pyrazol-3-yl)pyrimidine-2,4-diamine]
< 50		F[C@@H]1C[C@@H]1c1cc(Nc2ccnc(NCc3ccc4[nH]cnc4c3Cl)n2)n[nH]1 [I-77, N^2-((4-chloro-1H-benzo[d]imidazol-5-yl)methyl)-N^4-(5-((1R,2R)-2-fluorocyclopropyl)-1H-pyrazol-3-yl)pyrimidine-2,4-diamine]
< 50		F[C@@H]1C[C@H]1c1cc(Nc2ccnc(NCc3ccc4[nH]cnc4c3Cl)n2)n[nH]1 [I-78, N^2-((4-chloro-1H-benzo[d]imidazol-5-yl)methyl)-N^4-(5-((1S,2R)-2-fluorocyclopropyl)-1H-pyrazol-3-yl)pyrimidine-2,4-diamine]
< 50		F[C@H]1C[C@@H]1c1cc(Nc2ccnc(NCc3ccc4[nH]cnc4c3Cl)n2)n[nH]1 [I-79, N^2-((4-chloro-1H-benzo[d]imidazol-5-yl)methyl)-N^4-(5-((1R,2S)-2-fluorocyclopropyl)-1H-pyrazol-3-yl)pyrimidine-2,4-diamine]
< 50		FC1(F)CC1c1cc(Nc2ccnc(NCc3cccc4[nH]ccc34)n2)n[nH]1 (centres unmarked) [I-82, N2—((1H-indol-4-yl)methyl)-N4-(5-(2,2-difluorocyclopropyl)-1H-pyrazol-3-yl)pyrimidine-2,4-diamine]
< 50		C[C@H](Nc1nc(Nc2cc(C3CC3)[nH]n2)cc(C(C)(C)O)n1)c1ccc2[nH]ccc2c1 [I-83, (S)-2-(2-(1-(1H-indol-5-yl)ethylamino)-6-(5-cyclopropyl-1H-pyrazol-3-ylamino)pyrimidin-4-yl)propan-2-ol]
< 50		CC(C)(O)c1cc(Nc2cc(C3CC3)[nH]n2)nc(NCc2ccc3[nH]cnc3c2Cl)n1 [I-84, 2-(2-((4-chloro-1H-benzo[d]imidazol-5-yl)methylamino)-6-(5-cyclopropyl-1H-pyrazol-3-ylamino)pyrimidin-4-yl)propan-2-ol]
50 to 250		CC(C)(O)c1cc(Nc2cc(C3CC3)[nH]n2)nc(NCc2cccc3[nH]ccc23)n1 [I-85, 2-(2-((1H-indol-4-yl)methylamino)-6-(5-cyclopropyl-1H-pyrazol-3-ylamino)pyrimidin-4-yl)propan-2-ol]
< 50		CN(Cc1ccc2[nH]cnc2c1Cl)c1ncc(F)c(Nc2cc(C3CC3)[nH]n2)n1 [I-86, N^2-((4-chloro-1H-benzo[d]imidazol-5-yl)methyl)-N^4-(5-cyclopropyl-1H-pyrazol-3-yl)-5-fluoro-N^2-methylpyrimidine-2,4-diamine]
	< 50	CN(Cc1ccc2[nH]cnc2c1Cl)c1nccc(Nc2cc(C3CC3)[nH]n2)n1 [I-87, N^2-((4-chloro-1H-benzo[d]imidazol-5-yl)methyl)-N^4-(5-cyclopropyl-1H-pyrazol-3-yl)-N^2-methylpyrimidine-2,4-diamine]
< 50		Fc1cc(CNc2nccc(Nc3cc(C4CCC4)[nH]n3)n2)c2cc[nH]c2c1 [I-88, N^4-(5-Cyclobutyl-1H-pyrazol-3-yl)-N^2-((6-fluoro-1H-indol-4-yl)methyl)pyrimidine-2,4-diamine Formate]
250 to 1000		Cc1cc(Nc2cc(C3CC3)[nH]n2)nc(NCc2cc(F)cc3[nH]ccc23)n1 [I-89, N^4-(5-Cyclopropyl-1H-pyrazol-3-yl)-N^2-((6-fluoro-1H-indol-4-yl)methyl)-6-methylpyrimidine-2,4-diamine Formate]
250 to 1000		Fc1cc(CNc2ncc(F)c(Nc3cc(C4CCC4)[nH]n3)n2)c2cc[nH]c2c1 [I-90, N^4-(5-Cyclobutyl-1H-pyrazol-3-yl)-5-fluoro-N^2-((6-fluoro-1H-indol-4-yl)methyl)pyrimidine-2,4-diamine formate]
250 to 1000		Fc1cc(CNc2ncc(F)c(Nc3cc(C4CC4)[nH]n3)n2)c2cc[nH]c2c1 [I-91, N^4-(5-Cyclopropyl-1H-pyrazol-3-yl)-5-fluoro-N^2-((6-fluoro-1H-indol-4-yl)methyl)pyrimidine-2,4-diamine diformate]
< 50		Cc1c[nH]c2cccc(CNc3nccc(Nc4cc(C5CC5)[nH]n4)n3)c12 [I-92, N^4-(5-Cyclopropyl-1H-pyrazol-3-yl)-N^2-((3-methyl-1H-indol-4-yl)methyl)pyrimidine-2,4-diamine]
50 to 250		Clc1cc2[nH]ccc2cc1CNc1nccc(Nc2cc(C3CC3)[nH]n2)n1 [I-93, N^2-((6-Chloro-1H-indol-5-yl)methyl)-N^4 (5-cyclopropyl-1H-pyrazol-3-yl)pyrimidine-2,4-diamine]
50 to 250		Clc1cc2[nH]cnc2cc1CNc1nccc(Nc2cc(C3CC3)[nH]n2)n1 [I-94, N^2-((6-chloro-1H-benzo[d]imidazol-5-yl)methyl)-N^4-(5-cyclopropyl-1H-pyrazol-3-yl)-pyrimidine-2,4-diamine]
< 50		Cc1c(CN(C)c2nccc(Nc3cc(C4CC4)[nH]n3)n2)ccc2[nH]cnc12 [I-95, N^4-(5-Cyclopropyl-1H-pyrazol-3-yl)-N^2-methyl-N^2-((4-methyl-1H-benzo[d]imidazol-5-yl)methyl)pyrimidine-2,4-diamine]

Ki [1] [nM]	Ki [nM]	Structure (SMILES)
50 to 250		Fc1cc(CNc2nccc(Nc3cc(C4CC4)[nH]n3)n2)cc2nc[nH]c12 [I-96, N^4-(5-cyclopropyl-1H-pyrazol-3-yl)-N^2-((7-fluoro-1H-benzo[d]imidazol-5-yl)methyl)pyrimidine-2,4-diamine]
< 50		Fc1cnc(NCc2cccc3[nH]cnc23)nc1Nc1cc(C2CC2)n[nH]1 [I-97, N^2-((3H-benzo[d]imidazol-4-yl)methyl)-N^4-(3-cyclopropyl-1H-pyrazol-5-yl)-5-fluoropyrimidine-2,4-diamine]
< 50		C[C@H](Nc1nccc(Nc2cc(C3CC3)[nH]n2)n1)c1cccc2[nH]ccc12 [I-98, N^4-(5-cyclopropyl-1H-pyrazol-3-yl)-N^2-[(1S)-1-(1H-indol-4-yl)ethyl]pyrimidine-2,4-diamine]
50 to 250		C[C@H](Nc1ncc(F)c(Nc2cc(C3CC3)[nH]n2)n1)c1cccc2[nH]ccc12 [I-99, N^4-(5-cyclopropyl-1H-pyrazol-3-yl)-5-fluoro-N^2-[(1S)-1-(1H-indol-4-yl)ethyl]pyrimidine-2,4-diamine]
> 1000		C[C@@H](Nc1ncc(F)c(Nc2cc(C3CC3)[nH]n2)n1)c1cccc2[nH]ccc12 [I-100, N^4-(5-cyclopropyl-1H-pyrazol-3-yl)-5-fluoro-N^2-[(1R)-1-(1H-indol-4-yl)ethyl]pyrimidine-2,4-diamine]
50 to 250		CC[C@H](Nc1ncc(F)c(Nc2cc(C3CC3)[nH]n2)n1)c1ccc2[nH]cnc2c1 [I-101, N^2-[(1S)-1-(1H-benzimidazol-5-yl)propyl]-N^4-(5-cyclopropyl-1H-pyrazol-3-yl)-5-fluoro-pyrimidine-2,4-diamine]
250 to 1000		c1cc(Nc2cc(C3CC3)[nH]n2)nc(NCc2ccc3[nH]ncc3c2)n1 [I-102, N^4-(5-cyclopropyl-1H-pyrazol-3-yl)-N^2-(1H-indazol-5-ylmethyl)pyrimidine-2,4-diamine]
> 1000		c1cc(Nc2cc(C3CC3)[nH]n2)nc(NCc2ccc3cn[nH]c3c2)n1 [I-103, N^4-(5-cyclopropyl-1H-pyrazol-3-yl)-N^2-(1H-indazol-6-ylmethyl)pyrimidine-2,4-diamine]
50 to 250		FC1(F)CC(c2cc(Nc3ccnc(NCc4cccc5[nH]ccc45)n3)n[nH]2)C1 [I-104, N^2-((1H-indol-4-yl)methyl)-N^4-(5-(3,3-difluorocyclobutyl)-1H-pyrazol-3-yl)pyrimidine-2,4-diamine]
< 50		FC1(F)CC(c2cc(Nc3ccnc(NCc4ccc5[nH]cnc5c4Cl)n3)n[nH]2)C1 [I-105, N^2-((4-chloro-1H-benzo[d]imidazol-5-yl)methyl)-N^4-(5-(3,3-difluorocyclobutyl)-1H-pyrazol-3-yl)pyrimidine-2,4-diamine]
< 50		Clc1c(CNc2nccc(Nc3cc(C4CCCC4)[nH]n3)n2)ccc2[nH]cnc12 [I-107, N^2-((4-chloro-1H-benzo[d]imidazol-5-yl)methyl)-N^4-(5-cyclopentyl-1H-pyrazol-3-yl)pyrimidine-2,4-diamine]
< 50		Clc1c(CNc2nccc(Nc3cc(C4CCC4)[nH]n3)n2)ccc2[nH]cnc12 [I-108, N^2-((4-chloro-1H-benzo[d]imidazol-5-yl)methyl)-N^4-(5-cyclobutyl-1H-pyrazol-3-yl)pyrimidine-2,4-diamine]
250 to 1000		C[C@H](Nc1ncc(Cl)c(Nc2cc(C3CC3)[nH]n2)n1)c1ccc2[nH]ccc2c1 [I-110, (S)—N^2-(1-(1H-indol-5-yl)ethyl)-5-chloro-N^4-(5-cyclopropyl-1H-pyrazol-3-yl)pyrimidine-2,4-diamine]
< 50		C[C@H](Nc1nccc(Nc2cc(C3CC(F)(F)C3)[nH]n2)n1)c1ccc2[nH]ccc2c1 [I-111, (S)—N^2-(1-(1H-indol-5-yl)ethyl)-N^4-(5-(3,3-difluorocyclobutyl)-1H-pyrazol-3-yl)pyrimidine-2,4-diamine]
250 to 1000		Cc1cc(Nc2ccnc(N[C@@H](C)c3ccc4[nH]ccc4c3)n2)n[nH]1 [I-112, (S)—N^2-(1-(1H-indol-5-yl)ethyl)-N^4-(5-methyl-1H-pyrazol-3-yl)pyrimidine-2,4-diamine]
< 50		C[C@H](Nc1nccc(Nc2cc(C3CCCC3)[nH]n2)n1)c1ccc2[nH]ccc2c1 [I-113, (S)—N^2-(1-(1H-indol-5-yl)ethyl)-N^4-(5-cyclopentyl-1H-pyrazol-3-yl)pyrimidine-2,4-diamine]
< 50		C[C@H](Nc1nccc(Nc2cc(C3CCOC3)[nH]n2)n1)c1ccc2[nH]ccc2c1 (stereo partly drawn) [I-115, N^2—((S)-1-(1H-indol-5-yl)ethyl)-N^4-(5-(tetrahydrofuran-3-yl)-1H-pyrazol-3-yl)pyrimidine-2,4-diamine]
